{
  "source": "paper PMC8691750",
  "about": "“Euphorbia Factor L2 ameliorates the Progression of K/BxN Serum-Induced Arthritis by Blocking TLR7 Mediated IRAK4/IKKβ/IRF5 and NF-kB Signaling Pathways” (Frontiers in Pharmacology, 2021)",
  "key": {"[1]": {"tested_on": "TNF-α, IL-4, IL-17A, IL-1β and IL-6 in serum", "assay": "Cytokines in sera of STA mice (CBA Multiplex kit, ELISA)", "format": "in vivo, C57BL/6 mice", "method": "K/BxN serum was collected from K/BxN mice at 8 weeks of age, pooled, aliquoted and stored at -20 °C. K/BxN serum-transfer arthritis (STA) model was induced by intraperitoneal (i.p.) application of 150 μL of serum at day 0. Clinical score for arthritis severity was assessed using a 0–4 point scale for each paw at various time points (0–16 total score) as described previously ([Luo et al., 2011]). 8-week old male C57BL/6 mice were purchased from Dashuo Animal Center (China, Chengdu), maintained at 25°C, and exposed to 12-h light and dark cycles. Mice were fed with standard laboratory chow and water with 1 week of acclimatization. Naive mice were used as the control group. Except the control mice, all mice were i. p. injected with 150 μL of serum, then randomly divided into the following groups and treated with different compounds daily for the consecutive 8 days: 1) STA group; 2) Solvent control group, mice were gavaged with the solvent; 3) Dexamethasone (DEX) group, mice were gavaged with 30 mg/kg DEX; 4) EFL2 group 1, mice were gavaged with 40 mg/kg EFL2; 5) EFL2 group 2, mice were intraperitoneally injected with 15 mg/kg EFL2; 6) EFL2 group 3, […] were intraperitoneally injected with 40 mg/kg EFL2. […] All animal experiments were conducted in accordance with ethical regulation for animal care and use in China.\nIL-4, IL-17A and TNF-α in sera from different group mice were measured using CBA Multiplex kit (BD, United States). The concentrations of IL-1β and IL-6 in serum or supernatant were detected by ELISA Kit (MULTI SCIENCES, China) according to the manufacturers’ instructions."}, "[2]": {"target": "T1, IRF5 (Mus musculus, UniProt P56477)", "T1 construct": "host or cells: RAW264.7", "T1 sequence (P56477 whole entry)": "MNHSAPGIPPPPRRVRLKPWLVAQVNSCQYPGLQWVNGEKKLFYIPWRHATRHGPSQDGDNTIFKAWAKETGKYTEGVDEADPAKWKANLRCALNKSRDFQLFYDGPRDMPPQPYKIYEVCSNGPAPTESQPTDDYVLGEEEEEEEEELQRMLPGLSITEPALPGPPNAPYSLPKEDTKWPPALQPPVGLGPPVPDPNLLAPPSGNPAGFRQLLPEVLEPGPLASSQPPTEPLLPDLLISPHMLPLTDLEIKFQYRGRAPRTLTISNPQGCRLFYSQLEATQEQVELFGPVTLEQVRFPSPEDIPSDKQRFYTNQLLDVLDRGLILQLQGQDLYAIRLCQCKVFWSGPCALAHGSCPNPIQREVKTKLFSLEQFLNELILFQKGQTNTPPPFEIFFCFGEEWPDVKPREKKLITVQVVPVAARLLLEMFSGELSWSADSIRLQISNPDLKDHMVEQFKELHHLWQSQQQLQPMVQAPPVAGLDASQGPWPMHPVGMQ", "assay": "IRF5 plasmid transfection (overexpression) in RAW264.7 cells", "format": "cell-based", "conditions": "RAW264.7 transfected with IRF5 plasmid", "method": "RAW264.7 cells (4×10^5 cells/well) were seeded into 6-well plates before transfection with the plasmid. When cells confluency reached 60%, RAW264.7 cells were transfected with plasmid IRF5-mouse vector (Origene, United States) using TransEasy™ Transfection Reagent (FOREGENE, China). IRF5 plasmid was suspended with transfection reagent as 1:1.5. Cells were incubated at 37°C for 24 h, then treated with EFL2 and R837 for another 24 h. The supernatant was collected for IL-1β and IL-6 measurements using ELISA kits as described above. For western blot detection, RAW264.7 cells were pretreated with EFL2 (10 µM) for 1 h and stimulated with R837 (20 μg/ml) for 40 min after IRF5 plasmid transfection. Cell lysates were prepared as described above."}, "[3]": {"tested_on": "SMMC-7721 and Hep G2 cells", "design": "method as in Fan et al., 2019", "conditions": "via STAT3 phosphorylation; ref Fan et al., 2019; cited from earlier work"}, "[4]": {"tested_on": "lung cancer cell line A549", "design": "method as in Lin et al., 2017", "conditions": "in vitro, dose-dependent; ref Lin et al., 2017; cited from earlier work"}},
  "data": [
    {"smiles": "C=C1C(OC(=O)c2ccccc2)CC2C(C=C(C)C(=O)C3(OC(C)=O)CC(C)C(OC(=O)c4ccccc4)C3C1OC(C)=O)C2(C)C", "note": "(centres unmarked) [EFL2, Euphorbia factor L2]", "values": [
      {"measurement": "IL-6 level in sera", "setting": "[1]; STA mice, EFL2 15 mg/kg i.p., day 8", "value": "only effectively inhibited"},
      {"measurement": "IL-1β level in sera", "setting": "[1]; STA mice, EFL2 40 mg/kg i.p.", "value": "significantly reduced"},
      {"measurement": "IL-6 level in sera", "setting": "[1]; STA mice, EFL2 40 mg/kg i.p.", "value": "significantly reduced"},
      {"measurement": "TNF-α, IL-4 and IL-17A levels in blood (other cytokines)", "setting": "[1]; control, STA and STA mice treated with DEX or EFL2", "value": "did not affect"},
      {"measurement": "suppressive effect of EFL2 on nuclear translocation of IRF5 after overexpression of IRF5", "setting": "[2]; EFL2 10 μM, R837", "value": "significantly reversed"},
      {"measurement": "EFL2-induced reduction of IL-1β and IL-6 after overexpression of IRF5", "setting": "[2]; EFL2 and R837 24 h", "value": "effectively reversed"},
      {"measurement": "SMMC-7721 and Hep G2 cells proliferation and migration", "setting": "[3]", "value": "suppressing"},
      {"measurement": "apoptosis of A549 cells", "setting": "[4]", "value": "induced the apoptosis"}
    ]}
  ]
}
